Experimental data reported in US20150197492A1, “NOVEL INDENO[1,2-c]QUINOLIN-11-ONE DERIVATIVES, PREPARATION METHOD AND APPLICATION THEREOF” (National Defense Medical Center, priority 2014, published 2015).

Experiments:
Type in all cases: cell-based
[1] = system: MALME-3M; experiment: cells; conditions: MALME-3M (Melanoma), 10 μM, 48 hours
[2] = system: SF-295; experiment: cells; conditions: SF-295 (CNS Cancer), 10 μM, 48 hours
[3] = system: 55 to 60 cancer cell lines; conditions: 10 μM, 48 hours, all tested cell lines
[4] = system: MCF7; experiment: cells; conditions: MCF7 (Breast Cancer), 10 μM, 48 hours
[5] = system: MDA-MB-231/ATCC; experiment: cells; conditions: MDA-MB-231/ATCC (Breast Cancer), 10 μM, 48 hours
[6] = system: MDA-MB-468; experiment: cells; conditions: MDA-MB-468 (Breast Cancer), 10 μM, 48 hours
[7] = system: U251; experiment: cells; conditions: U251 (CNS Cancer), 10 μM, 48 hours
[8] = system: T-47D; experiment: cells; conditions: T-47D (Breast Cancer), 10 μM, 48 hours
[9] = system: SNB-75; experiment: cells; conditions: SNB-75 (CNS Cancer), 10 μM, 48 hours
[10] = system: COLO 205; experiment: cells; conditions: COLO 205 (Colon Cancer), 10 μM, 48 hours
[11] = system: OVCAR-4; experiment: cells; conditions: OVCAR-4 (Ovarian Cancer), 10 μM, 48 hours
[12] = system: A498; experiment: cells; conditions: A498 (Renal Cancer), 10 μM, 48 hours
[13] = system: SN12C; experiment: cells; conditions: SN12C (Renal Cancer), 10 μM, 48 hours
[14] = system: M14; experiment: cells; conditions: M14 (Melanoma), 10 μM, 48 hours
[15] = system: UACC-62; experiment: cells; conditions: UACC-62 (Melanoma), 10 μM, 48 hours
[16] = system: DU-145; experiment: cells; conditions: DU-145 (Prostate Cancer), 10 μM, 48 hours
[17] = system: OVCAR-8; experiment: cells; conditions: OVCAR-8 (Ovarian Cancer), 10 μM, 48 hours
[18] = system: NCI-H460; experiment: cells; conditions: NCI-H460 (Non-Small Cell Lung Cancer), 10 μM, 48 hours
[19] = system: ACHN; experiment: cells; conditions: ACHN (Renal Cancer), 10 μM, 48 hours
[20] = system: SK-OV-3; experiment: cells; conditions: SK-OV-3 (Ovarian Cancer), 10 μM, 48 hours
[21] = system: LOX IMVI; experiment: cells; conditions: LOX IMVI (Melanoma), 10 μM, 48 hours
[22] = system: SNB-19; experiment: cells; conditions: SNB-19 (CNS Cancer), 10 μM, 48 hours
[23] = system: K-562; experiment: cells; conditions: K-562 (Leukemia), 10 μM, 48 hours
[24] = system: SF-539; experiment: cells; conditions: SF-539 (CNS Cancer), 10 μM, 48 hours
[25] = system: human PC-3 cells; experiment: Sulforhodamine B (SRB) assay, cytotoxicity against PC-3 cells; conditions: SRB assay, PC-3 cells
Procedure, shortened: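 PC-3 cells in 5% FBS were fixed with 10% TCA after 24 h as T0, then treated with compound for 48 h, fixed, stained with 0.4% SRB in 1% acetic acid and solubilized in 10 mmol/L Trizma base. Absorbance was read at 515 nm. GI% = 100−[(Tx−T0)/(C−T0)]×100, and IC50 is the concentration halving total protein.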

[26] = system: SR; experiment: cells; conditions: SR (Leukemia), 10 μM, 48 hours
[27] = system: SW-620; experiment: cells; conditions: SW-620 (Colon Cancer), 10 μM, 48 hours
[28] = system: PC-3; experiment: cells; conditions: PC-3 (Prostate Cancer), 10 μM, 48 hours
[29] = system: NCI-H322M; experiment: cells; conditions: NCI-H322M (Non-Small Cell Lung Cancer), 10 μM, 48 hours
[30] = system: NCI-H226; experiment: cells; conditions: NCI-H226 (Non-Small Cell Lung Cancer), 10 μM, 48 hours

| Compound | growth percentage [1] [%] | growth percentage [2] [%] | Mean (mean growth percentage of the tested cancer cell lines) [3] [%] | growth percentage [4] [%] | growth percentage [5] [%] | growth percentage [6] [%] | growth percentage [7] [%] | growth percentage [8] [%] | growth percentage [9] [%] | growth percentage [10] [%] | growth percentage [11] [%] | growth percentage [12] [%] | growth percentage [13] [%] | growth percentage [14] [%] | growth percentage [15] [%] | growth percentage [16] [%] | growth percentage [17] [%] | growth percentage [18] [%] | growth percentage [19] [%] | growth percentage [20] [%] | also measured |
| --- | --- | --- | --- | --- | --- | --- | --- | --- | --- | --- | --- | --- | --- | --- | --- | --- | --- | --- | --- | --- | --- |
| CN1CCN(c2nc3ccccc3c3c2-c2ccc(Cl)cc2C3=O)CC1 [SJ-12, 9-Chloro-6-(4-methylpiperazin-1-yl)-11H-indeno[1,2-c]quinolin-11-one] | 106.59 | 90.01 | 88.15 | 68.30 | 62.53 | 95.71 | 85.86 | 76.27 | 70.00 | 93.65 | 94.70 | 72.81 | 83.57 | 106.31 | 96.67 | 102.37 | 87.51 | 91.83 | 88.10 | 87.98 | growth percentage [21]: 87.17%; growth percentage [22]: 85.41%; growth percentage [23]: 92.13%; growth percentage [24]: 95.23%; Toxicity (%) [25]: 0%; GI % (10 μM) [25]: 39.4%; growth percentage [26]: 75.13%; growth percentage [27]: 92.76%; growth percentage [28]: 82.93%; growth percentage [29]: 87.41%; growth percentage [30]: 86.17% |
| O=C1c2cc(Cl)ccc2-c2c(N3CCN(C(=O)N4CCCCC4)CC3)nc3ccccc3c21 [SJ-23] | 102.62 | 97.83 | 100.53 | 97.24 | 93.54 | 106.42 | 98.15 | 95.99 | 80.84 | 98.52 | 98.31 | 104.44 | 101.12 | 101.18 | 93.92 | 114.04 | 104.73 | 98.85 | 95.59 | 95.59 | growth percentage [21]: 103.19%; growth percentage [22]: 108.66%; growth percentage [23]: 95.70%; growth percentage [24]: 92.98%; Toxicity (%) [25]: 43%; GI % (10 μM) [25]: 100%; growth percentage [26]: 105.15%; growth percentage [27]: 92.51%; growth percentage [28]: 93.07%; growth percentage [29]: 94.59%; growth percentage [30]: 96.06% |
